Numbers after ± are expanded uncertainties.
Conditions: Liquid, Closed cell (Static) method

Structure (SMILES) | vapor or sublimation pressure (323.15 K) | vapor or sublimation pressure (333.15 K) | vapor or sublimation pressure (343.15 K) | vapor or sublimation pressure (353.15 K)
FC(F)CC(F)(F)F [1,1,1,3,3-pentafluoropropane] | 344.4 ± 1.6 kPa | 463.2 ± 1.9 kPa | 609.8 ± 2.4 kPa | 789.8 ± 2.9 kPa
CC(F)F [1,1-difluoroethane] | 1177.3 ± 3.7 kPa | 1500.6 ± 4.7 kPa | 1886.8 ± 5.9 kPa | 2342.7 ± 7.3 kPa
